Legend:
[1] = Stability in Hanks' balanced salt solution (HBSS); assay type: physicochemical; details: 37° C., relative to initial conc. in HBSS = 100.00
Description: (§1) The stability of the NAP derivatives prepared by EXAMPLE 1 was measured with the system of human colon cancer cell, Caco-2 cell. Caco-2 cells (1×10^5 cells) were first seeded into a polycarbonate film on the upper layer of a 12-well Transwell and incubated for 18 to 26 days at 37° C. The TEER of the Caco-2 cell monolayer was measured over 350 Ω×cm^2. The stability of the NAP derivatives in the Hanks' balanced salt solutions (HBSS) was measured by the concentration changes of NAP and the NAP derivatives incubated in the HBSS at 37° C. for 4 hours. The stability of the NAP derivatives in the Caco-2 cell system was measured by the procedure described below. NAP and the NAP derivatives in the HBSS were added into the upper layer of the Caco-2 cell-seeded Transwell. After 4-hour incubation, the concentration of NAP and the NAP derivatives in the upper and lower layers was measured and analyzed in comparison with the initial concentration (500 μM) by reverse HPLC at 210 nm.

Caco-2 cell = experiment: Stability in the Caco-2 cell system; assay type: in vitro ADME, human; details: 4-hour incubation in Caco-2 Transwell; relative to initial conc. = 100.00 (500 μM)
Description: as §1

Caco-2 cell monolayer = experiment: Permeation to Caco-2 cell monolayer; assay type: in vitro ADME, human; parameters: unit not given here; details: 4-hour incubation, initial concentration 500 μM in upper layer
Description: The permeation of NAP and the NAP derivatives was examined using the Caco-2 cell system. Caco-2 cells (1×10^5 cells) were seeded into the polycarbonate film on the upper layer of a 12-well Transwell and incubated at 37° C. for 18 to 26 days. The TEER of the Caco cell monolayer was measured over 350 Ω×cm^2. NAP and the NAP derivatives in the HBSS were added into the upper layer of the Caco-2 cell-seeded Transwell. After 4-hour incubation, the concentration of NAP and the NAP derivatives in the upper and lower layers was measured and analyzed in comparison with the initial concentration (500 μM) by reverse phase HPLC at 210 nm.

[2] = test system: scopolamine-induced amnesia rats; experiment: Morris water maze in scopolamine-induced amnesia rats; assay type: in vivo, rat; details: 0.25 mg/kg subcutaneous, 5 min after scopolamine 1 mg/kg i.p.; FIG. 11
Description: Scopolamine-induced amnesia […] were used in combination of Morris water maze, a memory and behavior analysis system, to assess the in vivo effects of the NAP derivative BMEC-NAP0701 and NAP.
Sprague-Dawley male rats with body weight of 220-250 g obtained from the National Laboratory Animal Center, Taiwan, were caged in an air-conditioned housing with a temperature of 23±1° C. and kept on an alternating 12-hour light and 12-hour dark schedule with sufficient feed and water. […]
Morris Water Maze was performed with a water maze device containing a stainless pool with a size of 160 cm in diameter, 50 cm in height, and 15 mm in thickness of the wall and a platform with a size of 11 cm in diameter, and 22 cm in height. […] The swimming time and track were recorded by VEDEOMEX-V video tracing system, video recorder, and monitor (Columbus Instruments) and analyzed by Water Maze Program (Columbus Instruments). […]
Late of the third day: Two to four hours after the third day training, the platform was removed from the pool. The trained rats were separately sent to quadrant I and the swimming track was recorded for 60 sec. The time spent in finding the original platform was also recorded. […]
Early of the fifth day: The platform was placed in the quadrant II and submerged beneath water level about 1 cm. The rats were separately sent to quadrant I and the time spent in finding the platform was recorded. […]

[3] = Pharmacokinetics after single subcutaneous dose in rats; assay type: in vivo; details: rat, 1 mg/kg subcutaneous
Description: A single dosage of NAP and the NAP derivative of BMEC-NAP0706 were subcutaneously administered to rats respectively, and blood samples were obtained at different time intervals. The blood samples were subjected to LC-MS/MS analysis to measure the concentration of NAP and the NAP derivative. A time-plasma concentration relationship was established and pharmacokinetic parameters were calculated. The procedures are described below.
Long Evans rats with body weight between 220 to 240 g were obtained from the National Laboratory Animal Center, Taiwan and caged in the laboratory animal housing in the Industrial Technology Research Institute, Taiwan. The Breeding procedure follows the “Guide for the Care and Use of Laboratory Animals” established by the Chinese Society of Laboratory Animal Sciences. The rats were kept on an alternating 12-hour light and 12-hour dark schedule with sufficient feed and water until they reached the body weight between 280 to 300 g.
Each rat was weighed before the pharmacokinetic examination to estimate its own dosage. The tested drug dissolved in PBS was formulated to achieve the amount of one dosage between 0.28 to 0.32 mL. Each rat was subcutaneously administered with 1 mg/kg of the tested drug. 0.3 mL of blood samples were collected from the saphenous vein in medial thigh of the rat before and 0.25-, 0.5-, 0.75-, 1-, 2-, 4-, 24-hour after administration. Whole blood was centrifuged under 3500 rpm for 10 min and supernatant (serum) was moved to a clean 1.5 mL eppendorf and stored at −80° C.
Sample pretreatment was as follows: The frozen serum was thawed in an ice bath. One hundred μL of the serum was moved to a clean 1.5 mL eppendorf and 10 μL of internal standard material was added. The mixture was added with 200 μL ACN and mixed again. The sample was centrifuged under 14000 rpm at 4° C. for 10 min, and the supernatant was moved to the other clean eppendorf and dried in a vacuum system at 60° C. for 30 min. The dried sample was dissolved in 900 μL ddH2O. The sample was added to a solid phase extraction column previously activated with methanol and ddH2O. After the sample passed through, the extraction column was washed with ddH2O alone and then ddH2O containing 5% ACN and 0.1% TFA. The sample was dissolved from the extraction column with ACN containing 0.1% TFA and dried under a vacuum system at 60° C. for 1 hour. The dried sample was redissolved with 100 μL of ddH2O containing 50% ACN. The sample was analyzed with HPLC-MS/MS system.
The sample analysis was as described below. 20 μL of the sample was poured into the HPLC-MS/MS system. The solvent system was applied in gradient partitioning: 90% A (H2O/ACN=98/2, 0.1% F.A.) and 10% B (H2O/ACN=20/80, 0.1% F.A.) at 0-3 min; 10% A and 90% B at 3-6.5 min; 90% A and 10% B again at 6.5-15 min. The flow rate was 0.2 mL/min. The column was ZORBAX C18, 5 μm, 2.1×50 mm (Agilent) and the detector was ABI 4000 Q Trap. Each sample was analyzed for 15 min. The results were compared with the standard calibration curve to estimate the concentration of each sample. All data was statistically analyzed with Excel or WinNonlin.

Compound: CC[C@H](C)[C@H](NC(=O)[C@H](CO)NC(=O)[C@@H](NC(=O)[C@@H]1CCCN1C(=O)[C@H](C)NC(=O)[C@H](CC(N)=O)NC(=O)c1ccccc1)C(C)C)C(=O)N1CCC[C@H]1C(=O)N[C@@H](CCC(N)=O)C(=O)O [BMEC-NAP0701, Benzoyl-NAPVSIPQ-OH]
- Conc. after 4-hour in HBSS [1]: 98.62
- Conc. after 4-hour in Caco-2 cells (Caco-2 cell): 78.97
- Conc. at the lover layer (Caco-2 cell monolayer): 0.28
- memory improving effect (time spent in finding the platform vs scopolamine-induced rats) [2]: memory improving effect similar to NAP in vivo

Compound: CC[C@H](C)[C@H](NC(=O)[C@H](CO)NC(=O)[C@@H](NC(=O)[C@@H]1CCCN1C(=O)[C@H](C)NC(=O)[C@H](CC(N)=O)NC(=O)c1cccs1)C(C)C)C(=O)N1CCC[C@H]1C(=O)N[C@@H](CCC(N)=O)C(N)=O [BMEC-NAP0804, 2-Thiophenecarbonyl-NAPVSIPQ-NH2]
- Conc. after 4-hour in HBSS [1]: 98.62
- Conc. after 4-hour in Caco-2 cells (Caco-2 cell): 92.09
- Conc. at the lover layer (Caco-2 cell monolayer): 0.31

Compound: Adipyl-NAPVSIPQ-NH2 [BMEC-NAP0202]
- Conc. after 4-hour in HBSS [1]: 98.38
- Conc. after 4-hour in Caco-2 cells (Caco-2 cell): 95.59
- Conc. at the lover layer (Caco-2 cell monolayer): 0.82

Compound: CCCCOC(=O)N[C@@H](CC(N)=O)C(=O)N[C@@H](C)C(=O)N1CCC[C@H]1C(=O)N[C@H](C(=O)N[C@@H](CO)C(=O)N[C@H](C(=O)N1CCC[C@H]1C(=O)N[C@@H](CCC(N)=O)C(N)=O)[C@@H](C)CC)C(C)C [BMEC-NAP0503, nBu-OCO-NAPVSIPQ-NH2]
- Conc. after 4-hour in HBSS [1]: 99.77
- Conc. after 4-hour in Caco-2 cells (Caco-2 cell): 85.89
- Conc. at the lover layer (Caco-2 cell monolayer): 0.60

Compound: CC[C@H](C)[C@H](NC(=O)[C@H](CO)NC(=O)[C@@H](NC(=O)[C@@H]1CCCN1C(=O)[C@H](C)NC(=O)[C@H](CC(N)=O)NC(=O)OCC1c2ccccc2-c2ccccc21)C(C)C)C(=O)N1CCC[C@H]1C(=O)N[C@@H](CCC(N)=O)C(=O)O [BMEC-NAP0706, Fmoc-NAPVSIPQ-OH]
- Conc. after 4-hour in HBSS [1]: 99.78
- Conc. after 4-hour in Caco-2 cells (Caco-2 cell): 67.14
- Conc. at the lover layer (Caco-2 cell monolayer): 0.57
- AUC ([3]; in vivo, sc): 104 ng·h/mL
- Cmax ([3]; in vivo, sc): 101 ng/mL
- Tmax ([3]; in vivo, sc): 45 min
- half-life ([3]; in vivo, sc, read-out: T½ (converted)): 54.6 min
- AUC relative to NAP [3]: twice that of NAP
- TNAP-max [3]: 0.25 h
- maximum plasma concentration relative to NAP [3]: twice that of NAP
- time required to reach the highest concentration [3]: 0.25 h

Compound: CC[C@H](C)[C@H](NC(=O)[C@H](CO)NC(=O)[C@@H](NC(=O)[C@@H]1CCCN1C(=O)[C@H](C)NC(=O)[C@H](CC(N)=O)NC(=O)OCC(C)C)C(C)C)C(=O)N1CCC[C@H]1C(=O)N[C@@H](CCC(N)=O)C(=O)O [BMEC-NAP0401, iBu-OCO-NAPVSIPQ-OH]
- Conc. after 4-hour in HBSS [1]: 100.02
- Conc. after 4-hour in Caco-2 cells (Caco-2 cell): 52.63
- Conc. at the lover layer (Caco-2 cell monolayer): 0.24

Compound: CC[C@H](C)[C@H](NC(=O)[C@H](CO)NC(=O)[C@@H](NC(=O)[C@@H]1CCCN1C(=O)[C@H](C)NC(=O)[C@H](CC(N)=O)NC(=O)c1ccccc1)C(C)C)C(=O)N1CCC[C@H]1C(=O)N[C@@H](CCC(N)=O)C(N)=O [BMEC-NAP0801, Benzoyl-NAPVSIPQ-NH2]
- Conc. after 4-hour in HBSS [1]: 99.88
- Conc. after 4-hour in Caco-2 cells (Caco-2 cell): 92.58
- Conc. at the lover layer (Caco-2 cell monolayer): 0.33
